# Reference: patent US20150157021A1, “NEW ANTIFUNGAL COMPOSITIONS” (DSM IP ASSETS B.V., priority 2012, published 2015)
# Tested on: Penicillium italicum
# Assay: Treatment of wounded oranges inoculated with Penicillium italicum (Examples 7, 8)
# Assay type: in vivo
# Settings: 20° C., 250 ppm natamycin, 400 ppm boscalid or both
# Method: Ten fresh, organic oranges were used per treatment. Each orange was soaked in a 180 ppm hypochlorite solution for 10 minutes, then rinsed thoroughly with fresh tap water and dried. The peel of each disinfected orange was wounded once using a cork borer according to the method described by de Lapeyre de Bellaire and Dubois (1987). Subsequently, each wound was inoculated with 10 μl of a Penicillium italicum suspension containing 1×10^5 of spores/ml. After incubation for 3 hours at 20° C., each wound and the orange peel area of 1 cm around the wound was treated with in total 150 μl of a freshly prepared aqueous antifungal composition comprising either 500 ppm natamycin (DSM Food Specialties, Delft, The Netherlands), 800 ppm boscalid or both. Each antifungal composition also comprised 3.2% (w/w) beeswax, 0.8% (w/w) glycerol, 0.7% (w/w) polyoxyethylene sorbitan monostearate (Tween 60), 0.2% (w/w) polyoxyethylene sorbitan monooleate (Tween 80), 0.05% (w/w) methylhydroxyethyl-cellulose (MHEC), 0.03% (w/w) anti-foaming agent, 0.02% (w/w) xanthan gum, 0.02% (w/w) citric acid, 0.01% (w/w) lactic acid and 0.01% potassium sorbate. A composition without natamycin or boscalid was used as control. […] The treated oranges were incubated in a closed box in the dark at 20° C. and assessed on mould growth during a 17-day incubation period. The antifungal activity (in %) of the individual and combined active ingredients was determined by calculating the reduction in mould growth observed on the oranges treated with the antifungal composition in comparison to the mould growth on the oranges treated with the control composition according to the Colby method (Colby, 1967) described in Example 5.
# The experiment was conducted as described in Example 7, except for the fact that each wounded and inoculated orange was treated with 150 μl of a freshly prepared aqueous antifungal composition comprising either 250 ppm natamycin (DSM Food Specialties, Delft, The Netherlands), 400 ppm boscalid or both. The treated oranges were incubated in a closed box in the dark at 20° C. and assessed on mould growth during a 18-day incubation period. During incubation, the treated oranges were assessed on mould growth according to the method described in Example 7.
smiles,measurement,setting,value
"C[C@@H]1C/C=C/C=C/C=C/C=C/[C@H](O[C@@H]2O[C@H](C)[C@@H](O)[C@H](N)[C@@H]2O)C[C@@H]2O[C@](O)(C[C@@H](O)C[C@H]3O[C@@H]3/C=C/C(=O)O1)C[C@H](O)[C@H]2C(=O)O [Natamycin, natamycin]",Observed antifungal activity O (%),11 days,69%
same,Observed antifungal activity O (%),12 days,66%
same,Observed antifungal activity O (%),13 days,62%
same,Observed antifungal activity O (%),14 days,51%
same,Observed antifungal activity O (%),17 days,39%
same,Observed antifungal activity O (%),18 days,34%
